Patent US20230212138A1, “PHD INHIBITOR COMPOUNDS, COMPOSITIONS, AND THEIR USE” (Akebia Therapeutics, Inc., priority 2020, published 2023)

Key:
Type in all cases: biochemical
full-length human PHD1 = molecular target: T1, full-length human PHD1 (Homo sapiens, UniProt Q96KS0); assay: TR-FRET assay, PHD1 enzymatic IC50; conditions: 15 nM PHD1, 1 μM 2-OG
T1 construct: expressed in a baculovirus expression system as the full-length protein; FLAG (N); purchased Active Motif 81064; host or cells: baculovirus expression system
T1 sequence (Q96KS0 whole entry): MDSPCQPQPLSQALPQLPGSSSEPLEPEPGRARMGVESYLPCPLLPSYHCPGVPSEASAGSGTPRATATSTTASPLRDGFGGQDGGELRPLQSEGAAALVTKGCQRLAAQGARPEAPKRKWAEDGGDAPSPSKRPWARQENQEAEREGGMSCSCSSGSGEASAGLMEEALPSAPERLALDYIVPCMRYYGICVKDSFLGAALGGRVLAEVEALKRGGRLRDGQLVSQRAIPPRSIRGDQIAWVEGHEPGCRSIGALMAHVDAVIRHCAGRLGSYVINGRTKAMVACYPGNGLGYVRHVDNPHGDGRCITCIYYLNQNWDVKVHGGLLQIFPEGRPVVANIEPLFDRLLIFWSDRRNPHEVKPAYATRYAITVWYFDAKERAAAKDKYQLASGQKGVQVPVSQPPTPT
From the text: (§1) In the presence of 2-oxoglutarate and O2, PHD enzyme hydroxylates proline 564 of biotin-tagged HIF-1α peptide resulting in generation of biotin-tagged HIF-1α-hydroxyproline, succinate and CO2. The resulting proximity of the donor fluorophore complex, monoclonal antibody anti-6His-Terbium (Tb)-cryptate Gold, bound to the His-tagged VHL protein, EloB, EloC complex (His-VBC) and the acceptor fluorophore, SA-D2 complex, bound to HIF-1α-hydroxyproline results in a fluorescence resonance energy transfer signal that can be detected and quantified
(§2) Time-resolved fluorescence resonance energy transfer (TR-FRET) assay was utilized to determine the enzymatic half maximal inhibitory concentration (IC50) value of PHD inhibitors against the full-length human prolyl-4-hydroxylase domain (PHD) enzymes, PHD1, PHD2, and PHD3. The TR-FRET assay was developed based on the specific binding of hydroxylated HIF-1α peptide with the complex formed by VHL, EloB and EloC (VBC), to generate a fluorescent signal. Terbium (Tb)-Donor (monoclonal antibody anti-6His-Tb-cryptate Gold) and D2-acceptor (streptavidin [SA]-D2) of TR-FRET are linked to the VBC complex and to HIF-1α peptide, respectively. The VBC complex binds specifically to the HIF-1α peptide when it is hydroxylated, allowing energy transfer from TR-FRET donor to acceptor (FIG. 1).
Recombinant human PHD1 protein (catalog #81064, Lot #24717001) was purchased from Active Motif (Carlsbad, Calif., USA). PHD1 was expressed in a baculovirus expression system as the full-length protein (NCBI accession number NP_542770.2) with an N-terminal FLAG tag (molecular weight 44.9 kDa). Purity (>90%) was assessed by SDS-PAGE.
(§3) PHD inhibitor compound was preincubated with PHD enzyme in a 10 μL reaction volume in white 384-well Optiplate microplates (catalog #6007290, Perkin Elmer, Waltham, Mass., USA). For this, 5 μL PHD inhibitor compound was serially diluted with dilution buffer (50 mM HEPES [4-(2-hydroxyethyl)-1-piperazineethanesulfonic acid] pH 7.5, 50 mM sodium chloride [NaCl], 0.01% Tween-20, 0.01% purified bovine serum albumin [BSA]) and mixed with 5 μL PHD enzyme mix prepared as a 4× concentrate in the dilution buffer containing PHD enzyme (60 nM PHD1, 20 nM PHD2, 140 nM PHD3), 40 μM ferrous ammonium sulfate (FAS), 4 mM sodium (Na) ascorbate. The plates were incubated for 30 minutes at room temperature without rotation.
(§4) Five microliters of the VBC/anti-6His-Tb-cryptate Gold mix prepared as a 4×concentrate in dilution buffer containing 20 nM His-VBC, 1.32 nM monoclonal antibody anti-6His-Tb-cryptate Gold was then added. This step was followed immediately by the addition of 5 μL of the HIF-1α C35 substrate mix prepared as a 4×concentrate in the dilution buffer containing 120 nM biotin-labeled HIF-1α C35, 132 nM SA-D2, 4 μM 2-oxoglutarate (2-OG) to reach a final reaction volume of 20 μL.
(§5) The final assay reaction contained 50 mM HEPES, pH 7.5, 50 mM NaCl, 1 μM 2-OG, 10 μM FAS, 1 mM Na ascorbate, 0.01% Tween-20, 0.01% purified BSA, 30 nM biotin-labeled HIF-1α C35, 5 nM His-VBC, 0.33 nM monoclonal antibody anti-6His-Tb-cryptate Gold, 33 nM SA-D2 and PHD enzyme (15 nM PHD1, 5 nM PHD2, or 35 nM PHD3) with the diluted compound.
(§6) For the measurement of the IC50 of PHD inhibitor compound, reactions were incubated for 10 minutes at room temperature and then read on a Perkin Elmer EnVision (Waltham, Mass., USA) at an excitation wavelength of 340 nm and at emission wavelengths of 615 nm and 665 nm. The data represent the quotient of the signal intensity at 665 nm and 615 nm, automatically calculated by Envision Manager software (Perkin Elmer, Waltham, Mass., USA). The IC50 values (mean, standard deviation, standard error of the mean, geometric mean and 95% confidence interval) were determined using a four-parameter curve-fit using GraphPad Prism 7.0 (GraphPad, La Jolla, Calif., USA) and represent the compound concentration plotted against the calculated ratio of 665 nm and 615 nm. […]

full-length human PHD2 = molecular target: T2, full-length human PHD2 (Homo sapiens, UniProt Q9GZT9); assay: TR-FRET assay, PHD2 enzymatic IC50; conditions: 5 nM PHD2, 1 μM 2-OG
T2 construct: The PHD2 construct contained amino acids 1 to 426 of PHD2; His tag (N, cleaved yes); TEV protease cleavage site (N, cleaved yes); host or cells: Sf9 insect cells (baculovirus)
T2 sequence (Q9GZT9 whole entry, the tested form may be a part): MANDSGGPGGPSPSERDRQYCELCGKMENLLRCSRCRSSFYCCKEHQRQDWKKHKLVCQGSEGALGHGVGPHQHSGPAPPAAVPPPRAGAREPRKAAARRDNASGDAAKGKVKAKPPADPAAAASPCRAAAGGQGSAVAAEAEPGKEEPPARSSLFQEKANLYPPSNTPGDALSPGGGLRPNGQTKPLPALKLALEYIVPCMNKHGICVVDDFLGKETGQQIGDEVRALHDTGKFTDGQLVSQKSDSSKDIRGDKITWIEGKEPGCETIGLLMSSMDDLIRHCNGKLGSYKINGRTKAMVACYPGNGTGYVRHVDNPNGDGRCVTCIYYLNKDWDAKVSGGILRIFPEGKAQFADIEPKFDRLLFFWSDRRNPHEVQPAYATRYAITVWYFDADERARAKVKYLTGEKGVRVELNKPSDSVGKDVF
From the text: as §1, §2
The full-length human PHD2 enzyme was produced with a baculovirus infected insect cell (BIIC) expression system by Beryllium (Bedford, Mass., USA). The PHD2 construct contained amino acids 1 to 426 of PHD2 (UniProt Knowledgebase[UniProtKB]/Swiss-Prot accession number Q9GZT9.1), and a His tag and a Tobacco Etch Virus (TEV) protease cleavage site at the N-terminus. The construct was expressed in Sf9 insect cells, purified by Ni-NTA column and digested with TEV protease to remove the His tag.
as §3, §4, §5
For the measurement of the IC50 of PHD inhibitor compound, reactions were incubated for 10 minutes at room temperature and then read on a Perkin Elmer EnVision (Waltham, Mass., USA) at an excitation wavelength of 340 nm and at emission wavelengths of 615 nm and 665 nm. The data represent the quotient of the signal intensity at 665 nm and 615 nm, automatically calculated by Envision Manager software (Perkin Elmer, Waltham, Mass., USA). […]

full-length human PHD3 = molecular target: T3, full-length human PHD3 (Homo sapiens, UniProt Q9H6Z9); assay: TR-FRET assay, PHD3 enzymatic IC50; conditions: 35 nM PHD3, 1 μM 2-OG
T3 construct: It was expressed in E. coli as the full-length protein; 6-His (N); purchased Active Motif 81033; host or cells: E. coli
T3 sequence (Q9H6Z9 whole entry): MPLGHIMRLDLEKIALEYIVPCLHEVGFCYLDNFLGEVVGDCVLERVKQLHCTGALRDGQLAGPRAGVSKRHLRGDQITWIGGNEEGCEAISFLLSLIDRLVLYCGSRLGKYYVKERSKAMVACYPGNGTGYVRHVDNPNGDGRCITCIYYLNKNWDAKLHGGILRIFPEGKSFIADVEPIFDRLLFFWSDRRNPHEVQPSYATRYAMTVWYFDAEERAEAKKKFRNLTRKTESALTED
From the text: as §1, §2
Recombinant human PHD3 protein (molecular weight 31.1 kDa) was purchased from Active Motif (Carlsbad, Calif., USA). It was expressed in E. coli as the full-length protein (NCBI accession number NP_071356.1) with an N-terminal 6-His tag (catalog #81033, Lot #24417001).
as §3, §4, §5, §6

SMILES	IC50 (full-length human PHD1)	IC50 (full-length human PHD2)	IC50 (full-length human PHD3)
N#Cc1ccc(-c2cnn(-c3ccc(NC(=O)N4CCNCC4)cn3)c2O)cc1 [Compound 33, N-(6-(4-(4-cyanophenyl)-5-hydroxy-1H-pyrazol-1-yl)pyridin-3-yl)piperazine-1-carboxamide]	≥ 10000 nM	≥ 10000 nM	–
CS(=O)(=O)c1ccc(-n2ncc(-c3ccc(F)cc3)c2O)nc1 [Compound 20, 4-(4-fluorophenyl)-1-(5-(methylsulfonyl)pyridin-2-yl)-1H-pyrazol-5-ol]	< 100 nM	< 100 nM	≥ 10000 nM
CS(=O)(=O)NC(=O)c1ccc(-n2ncc(-c3ccc(C#N)cc3)c2O)nc1 [Compound 27, 6-(4-(4-cyanophenyl)-5-hydroxy-1H-pyrazol-1-yl)-N-(methylsulfonyl) nicotinamide]	< 100 nM	< 100 nM	–
N#Cc1ccc(-c2cnn(-c3ccc(Cl)cn3)c2O)cc1 [Compound 18, 4-(1-(5-chloropyridin-2-yl)-5-hydroxy-1H-pyrazol-4-yl)benzonitrile]	100 to 1000 nM	100 to 1000 nM	–
CC(C)C(=O)c1ccc(-n2ncc(-c3ccc(C#N)cc3)c2O)nc1 [Compound 3, 4-(5-hydroxy-1-(5-isobutyrylpyridin-2-yl)-1H-pyrazol-4-yl)benzonitrile]	< 100 nM	< 100 nM	< 100 nM
CCS(=O)(=O)Nc1ccc(-n2ncc(-c3ccc(C#N)cc3)c2O)nc1 [Compound 25, N-(6-(4-(4-cyanophenyl)-5-hydroxy-1H-pyrazol-1-yl)pyridin-3-yl)ethanesulfonamide]	< 100 nM	< 100 nM	< 100 nM
N#Cc1ccc(-c2cnn(-c3ccc(-c4nccs4)cn3)c2O)cc1 [Compound 12, 4-(5-hydroxy-1-(5-(thiazol-2-yl)pyridin-2-yl)-1H-pyrazol-4-yl)benzonitrile]	< 100 nM	< 100 nM	< 100 nM
N#Cc1ccc(-c2cnn(-c3ccc(-n4cccn4)cn3)c2O)cc1 [Compound 10, 4-(1-(5-(1H-pyrazol-1-yl)pyridin-2-yl)-5-hydroxy-1H-pyrazol-4-yl)benzonitrile]	< 100 nM	< 100 nM	100 to 1000 nM
COc1cc(-c2cnn(-c3ccc(S(C)(=O)=O)cn3)c2O)ccn1 [Compound 8, 4-(2-methoxypyridin-4-yl)-1-(5-(methylsulfonyl)pyridin-2-yl)-1H-pyrazol-5-ol]	< 100 nM	< 100 nM	100 to 1000 nM
CC(=O)NS(=O)(=O)c1ccc(-n2ncc(-c3ccc(C#N)cc3)c2O)nc1 [Compound 29, N-((6-(4-(4-cyanophenyl)-5-hydroxy-1H-pyrazol-1-yl)pyridin-3-yl)sulfonyl)acetamide]	< 100 nM	< 100 nM	–
CCC(=O)c1ccc(-n2ncc(-c3ccc(C#N)cc3)c2O)nc1 [Compound 2, 4-(5-hydroxy-1-(5-propionylpyridin-2-yl)-1H-pyrazol-4-yl)benzonitrile]	< 100 nM	< 100 nM	< 100 nM
N#Cc1ccc(-c2cnn(-c3ccc(NC(=O)N4CCOCC4)cn3)c2O)cc1 [Compound 28, N-(6-(4-(4-cyanophenyl)-5-hydroxy-1H-pyrazol-1-yl)pyridin-3-yl)morpholine-4-carboxamide]	≥ 10000 nM	≥ 10000 nM	–
N#Cc1ccc(-c2cnn(-c3ccc(N4CCCC4=O)cn3)c2O)cc1 [Compound 15, 4-(5-hydroxy-1-(5-(2-oxopyrrolidin-1-yl)pyridin-2-yl)-1H-pyrazol-4-yl)benzonitrile]	< 100 nM	< 100 nM	< 100 nM
CP(C)(=O)c1ccc(-n2ncc(-c3ccc(C#N)cc3)c2O)nc1 [Compound 30, 4-(1-(5-(dimethylphosphoryl)pyridin-2-yl)-5-hydroxy-1H-pyrazol-4-yl)benzonitrile]	< 100 nM	< 100 nM	–
CS(=N)(=O)c1ccc(-n2ncc(-c3ccc(C#N)cc3)c2O)nc1 (stereo not shown) [Compound 26, 4-(5-hydroxy-1-(5-(S-methylsulfonimidoyl)pyridin-2-yl)-1H-pyrazol-4-yl)benzonitrile]	< 100 nM	< 100 nM	–
Cc1cc(C#N)ccc1-c1cnn(-c2ncc(S(C)(=O)=O)cc2Cl)c1O [Compound 32, 4-(1-(3-chloro-5-(methylsulfonyl)pyridin-2-yl)-5-hydroxy-1H-pyrazol-4-yl)-3-methylbenzonitrile]	≥ 10000 nM	≥ 10000 nM	–
N#Cc1ccc(-c2cnn(-c3ccc(-c4ccccn4)cn3)c2O)cc1 [Compound 13, 4-(1-([2,3′-bipyridin]-6′-yl)-5-hydroxy-1H-pyrazol-4-yl)benzonitrile]	< 100 nM	100 to 1000 nM	–
CS(=O)(=O)c1ccc(-n2ncc(-c3ccc(Cl)cn3)c2O)nc1 [Compound 31, 4-(5-chloropyridin-2-yl)-1-(5-(methylsulfonyl)pyridin-2-yl)-1H-pyrazol-5-ol]	100 to 1000 nM	100 to 1000 nM	–
N#Cc1ccc(-c2cnn(-c3ccc(Br)cn3)c2O)cc1 [Compound 21, 4-(1-(5-bromopyridin-2-yl)-5-hydroxy-1H-pyrazol-4-yl)benzonitrile]	100 to 1000 nM	100 to 1000 nM	–
N#Cc1ccc(-c2cnn(-c3ccc(C4CC4)cn3)c2O)cc1 [Compound 16, 4-(1-(5-cyclopropylpyridin-2-yl)-5-hydroxy-1H-pyrazol-4-yl)benzonitrile]	100 to 1000 nM	≥ 10000 nM	–
CS(=O)(=O)c1ccc(-n2ncc(-c3cccc(C#N)c3)c2O)nc1 [Compound 5, 3-(5-hydroxy-1-(5-(methylsulfonyl)pyridin-2-yl)-1H-pyrazol-4-yl)benzonitrile]	100 to 1000 nM	< 100 nM	–
N#Cc1ccc(-c2cnn(-c3ccc(C(F)(F)F)cn3)c2O)cc1 [Compound 14, 4-(5-hydroxy-1-(5-(trifluoromethyl)pyridin-2-yl)-1H-pyrazol-4-yl)benzonitrile]	100 to 1000 nM	1000 to 10000 nM	–
